Square brackets hold non-standard residues; d marks the D form. Ends that are not written are not given here. Peptide text beside a SMILES is read from it. ξ: configuration not given here. ξT = CC(O)C(N)C(=O)O
What was measured:
[1] = In vitro peptide stability in 10% rat brain homogenate, RP-HPLC quantification; format: in vitro ADME; conditions: 37° C.
Description: Peptides were prepared as a 1 mM solution in phosphate-buffered saline. 20 μl of the peptide solution was diluted in 10% rat brain homogenate (in 1× phosphate-buffered saline and 0.5% Triton X-100).
The solution was incubated at 37° C. for different times, and the reaction was stopped by adding the Complete mixture of protease inhibitors (Roche Molecular Biochemicals, Mannheim, Germany). For ANA5 and RI-ANA5, the bulk of the brain proteins (but not the peptides) were precipitated in cold methanol (1:4 (v/v) mixture/MeOH) for 1 hr at −20° C. The precipitated proteins were pelleted by centrifugation at 10,000 g for 10 min at 4° C. The supernatant containing the peptide was concentrated five times under vacuum and separated by RP-HPLC. Due to recovery issues with the longer ANA1 and RI-ANA1 peptides, samples were instead lyophilized and then reconstituted in a TFA solution, prior to separation by RP-HPLC.
The area of the peak (UV absorbance at 205 nm) corresponding to the intact peptide was measured and compared with an equivalent sample incubated in phosphate-buffered saline.
(iii) In vitro assay of peptide stability—Peptides were prepared as a 1 mM solution in PBS. 20 μl of the peptide solution was diluted in 10% rat brain homogenate (in PBS+0.5% Triton X-100). The solution was incubated at 37° C. for different times, and the reaction was stopped by adding the Complete mixture of protease inhibitors (Roche Molecular Biochemicals, Mannheim, Germany). For ANA5 and 9M S.A., the bulk of the brain proteins (but not the peptides) were precipitated in cold methanol (1:4 (v/v) mixture/methanol) for 1 h at −20° C. The precipitated proteins were pelleted by centrifugation (10.000 g, 10 min, 4° C.). The supernatant containing the peptide was concentrated five times under vacuum and separated by reversed-phase HPLC (RP-HPLC). Due to recovery issues with the longer ANA1 and RI-ANA1 peptides, samples were instead lyophilized, extracted in TFA, centrifuged to remove insoluble material and separated by RP-HPLC. The area of the peak (UV absorbance at 205 nm) corresponding to the intact peptide was measured and compared with an equivalent sample incubated in PBS.
Peptides were prepared as 1 mM solutions in PBS and diluted in 10% rat brain homogenate. Solutions were incubated at 37° C. for different times, and the reactions were stopped by addition of protease inhibitors. Samples were processed as described herein in the General Materials/Methods, separated by RP-HPLC and the level of intact peptide was determined at each time point.

[2] = molecular target: oligomeric Aβ42 (human synthetic Aβ42, pre-formed oligomers) (human) (UniProt P05067); assay: SPR (Biacore 3000), 15M S.A. immobilised on CM5, oAβ42 injected; 1:1 binding model with drifting baseline; overall estimate across the oligomer mixture
[3] = test system: amyloid plaques; assay: Ex vivo staining of amyloid plaques in brain tissue sections; conditions: brain tissue from 8 month old 5× FAD AD model mice
Description: (x) Immunohistochemistry—Brains were obtained from 8 month old 5× FAD AD model mice Oakley, F-F et al (2006) or age-matched non-transgenic controls and post-fixed and embedded in the freezing medium as described in Drummond, E. S. et al (2013). Serial sagittal cryosections were cut at a thickness of 10 μm. Positive control staining for amyloid was performed using Thioflavin S (ThioS) as described in Youmans, K. L, et al (2012). After the removal of the freezing medium by serial changes of TBS pH 7.4, the slide was incubated for 1 h at room temperature in blocking buffer (10% goat serum in TBS). The slides were then stained with 1 μM TMR-labelled 15M S.A. peptide in 2% goat-serum-PBS for 2 hours at room temperature. Excess unbound peptide was removed prior to mounting by extensive washing with TBS. The coverslip was mounted using Prolong Gold mounting media (Life Technologies).
We investigated whether TMR-labelled 15M S.A. could be used to stain amyloid plaques ex vivo using brain tissue sections from AD model mice, in comparison with Thioflavin S (Thio S), which binds mature amyloid deposits and readily detects these plaques.

UniProt P05067, sequence (P05067 672-713 limits assumed): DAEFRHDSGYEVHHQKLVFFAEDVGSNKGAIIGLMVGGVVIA

intact peptide amount ([1]; time 0 min) [µg] | intact peptide amount ([1]; time 15 min) [µg] | intact peptide amount ([1]; time 30 min) [µg] | intact peptide amount ([1]; time 300 min) [µg] | Compound | also measured
12 | 0.47 | 0 | 0 | NRTPQMLKR [ANA5, Asn-Arg-Thr-Pro-Gln-Met-Leu-Lys-Arg] | intact peptide amount ([1]; time 0 min, listed as 9mer): 12.00 µg; intact peptide amount ([1]; time 30 min, listed as 9 mer): none; intact peptide amount ([1]; time 30 min, listed as 9mer): 0 µg
25.8 | 5.6 | 0.03 | 0.02 | TNPNRRNRTPQMLKR [ANA1, Thr-Asn-Pro-Asn-Arg-Arg-Asn-Arg-Thr-Pro-Gln-Met-Leu-Lys-Arg] | intact peptide amount ([1]; time 0 min, listed as 15mer): 25.78 µg; intact peptide amount ([1]; time 15 min, listed as 15mer): 5.55 µg; intact peptide amount ([1]; time 30 min, listed as 15 mer): trace amounts; intact peptide amount ([1]; time 30 min, listed as 15mer): 0.03 µg

The next lines start with the compound.

Compound | intact peptide amount ([1]; time 0 min) [µg] | intact peptide amount ([1]; time 15 min) [µg] | intact peptide amount ([1]; time 30 min) [µg] | intact peptide amount ([1]; time 300 min) [µg] | also measured
CSCC[C@@H](NC(=O)[C@@H](CC(C)C)NC(=O)[C@@H](CCCCN)NC(=O)[C@H](N)CCCNC(=N)N)C(=O)N[C@H](CCC(N)=O)C(=O)N1CCC[C@@H]1C(=O)NC(C(=O)N[C@H](CCCNC(=N)N)C(=O)N[C@H](CC(N)=O)C(=O)N[C@H](CCCNC(=N)N)C(=O)N[C@H](CCCNC(=N)N)C(=O)N[C@H](CC(N)=O)C(=O)N1CCC[C@@H]1C(=O)N[C@H](CC(N)=O)C(=O)NC(C(=O)O)C(C)O)C(C)O (stereo partly drawn) [RI-ANA1, Arg-Lys-Leu-Met-Gln-Pro-Thr-Arg-Asn-Arg-Arg-Asn-Pro-Asn-Thr] (H-[dR][dK][dL][dM][dQ][dP][ξT][dR][dN][dR][dR][dN][dP][dN][ξT]-OH; N-terminus and C-terminus assumed) | 29.8 | 27.8 | 29.4 | 33.5 | intact peptide amount ([1]; time 0 min, listed as 15M S.A.): 29.80 µg; intact peptide amount ([1]; time 15 min, listed as 15M S.A.): 27.80 µg; intact peptide amount ([1]; time 30 min, listed as 15M S.A.): 29.40 µg; intact peptide amount ([1]; time 300 min, listed as 15M S.A.): 33.50 µg
CSCC[C@@H](NC(=O)[C@@H](CC(C)C)NC(=O)[C@@H](CCCCN)NC(=O)[C@H](N)CCCNC(=N)N)C(=O)N[C@H](CCC(N)=O)C(=O)N1CCC[C@@H]1C(=O)N[C@@H](C(=O)N[C@H](CCCNC(=N)N)C(=O)N[C@H](CC(N)=O)C(=O)O)[C@H](C)O [RI-ANA5, Arg-Lys-Leu-Met-Gln-Pro-Thr-Arg-Asn] | 14 | 12.35 | 12.35 | 12.5 | intact peptide amount ([1]; time 0 min, listed as 9M S.A.): 14.11 µg; intact peptide amount ([1]; time 300 min, listed as 9M S.A.): 12.51 µg
RI-ANA1 (Arg-Lys-Leu-Met-Gln-Pro-Thr-Arg-Asn-Arg-Arg-Asn-Pro-Asn-Thr, all D-amino acids) (peptide) | – | – | – | – | Kd [2]: 11 µM
Thioflavin S [Thio S] | – | – | – | – | staining of amyloid deposits [3]: extensive plaques

Source: patent publication US20160244486A1, “AB Modulating Peptides” (ALZHYME PTY LTD, priority 2013, published 2016)
